Test results published in patent US20130310256A1, “HERBICIDAL COMPOSITIONS COMPRISING 4-AMINO-3-CHLORO-5-FLUORO-6-(4-CHLORO-2-FLUORO-3-METHOXYPHENYL) PYRIDINE-2-CARBOXYLIC ACID OR A DERIVATIVE THEREOF AND VLCFA AND LIPID SYNTHESIS INHIBITING HERBICIDES” (DOW AGROSCIENCES LLC, priority 2008, published 2013).
Values joined by “and” are separate entries in the source; they are usually repeats but may differ in a detail not shown here. Identical values can stand only once.

Key:
Assay in all cases: Example I: postemergence foliar-applied weed control, greenhouse
[1] = test system: ECHCG; type: in vivo, Echinochloa crus-galli (L.) Beauv. (barnyardgrass); details: for Visual Weed Control (%) - 22 DAA ECHCG Obs / Visual Weed Control (%) - 20 DAA ECHCG Obs: foliar
How it was run: (§1)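 Plants grown in loam/sandy loam–calcareous grit soil (80:20) in greenhouse, 14 hr photoperiod, about 29° C. day/26° C. night, treated postemergence at first to fourth true leaf stage. Foliar spray at 187 L/ha with 1.25% (v/v) crop oil concentrate; Compound A dosed on acid equivalent basis, partners on active ingredient basis.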

[2] = test system: LEFCH; type: in vivo, Leptochloa chinensis (L.) Nees (Chinese sprangletop); details: for Visual Weed Control (%) - 21 DAA LEFCH Obs / Visual Weed Control (%) - 22 DAA LEFCH Obs / Visual Weed Control (%) - 19 DAA LEFCH Obs: foliar
How it was run: as §1

[3] = test system: IPOHE; type: in vivo, Ipomoea hederacea Jacq. (ivyleaf morningglory); details: for Visual Weed Control Obs: 20 DAA; for Visual Weed Control (%) - 21 DAA IPOHE Obs: foliar
Text: Seeds or nutlets of the desired test plant species were planted in a soil matrix prepared by mixing a loam or sandy loam soil (e.g., 28.6 percent silt, 18.8 percent clay, and 52.6 percent sand, with a pH of about 5.8 and an organic matter content of about 1.8 percent) and calcareous grit in an 80 to 20 ratio. The soil matrix was contained in plastic pots with a volume of 1 quart and a surface area of 83.6 square centimeters (cm^2). When required to ensure good germination and healthy plants, a fungicide treatment and/or other chemical or physical treatment was applied. The plants were grown for 8-22 days in a greenhouse with an approximate 14 hr photoperiod which was maintained at about 29° C. during the day and 26° C. during the night. Nutrients (Peters Excel® 15-5-15 5-Ca 2-Mg and iron chelate) were applied in the irrigation solution as needed and water was added on a regular basis. Supplemental lighting was provided with overhead metal halide 1000-Watt lamps as necessary. The plants were employed for testing when they reached the first through fourth true leaf stage.
Treatments consisted of the acid or esters of 4-amino-3-chloro-5-fluoro-6-(4-chloro-2-fluoro-3-methoxy-phenyl)pyridine-2-carboxylic acid (Compound A), each formulated as an SC (suspension concentrate), and various herbicidal components alone and in combination. Forms of compound A were applied on an acid equivalent basis.
Other herbicidal components were applied on an active ingredient basis and included very long chain fatty acid (VLCFA) synthesis-inhibiting and fatty acid/lipid synthesis-inhibiting herbicides acetochlor (technical grade material), acetochlor+dichlormid formulated as Topnotch®, pretilachlor (technical grade material), butachlor formulated as Butachlor EC, fentrazamide formulated as Fentrazamide EC, thiobencarb formulated as Bolero® 8EC, cafenstrole formulated as Himeadow® WP or Lapost® Flowable, benfuresate formulated as Full Shot®, dimethenamid-P formulated as Outlook®, indanofan (technical grade material), flufenacet formulated as Define® DF, mefenacet (technical grade material), S-metolachlor formulated as Dual® II Magnum, pethoxamid formulated as Successor® 600, and pyroxasulfone (technical grade material).
Treatment requirements were calculated based upon the rates being tested, the concentration of active ingredient or acid equivalent in the formulation, and a 12 mL application volume at a rate of 187 L/ha.
For treatments comprised of formulated compounds, measured amounts of compounds were placed individually in 25 mL glass vials and diluted in a volume of 1.25% (v/v) Agri-Dex® crop oil concentrated to obtain 12× stock solutions. […] Application solutions were prepared by adding an appropriate amount of each stock solution (e.g., 1 mL) and diluted to the appropriate final concentrations with the addition of 10 mL of an aqueous mixture of 1.25% (v/v) crop oil concentrate so that the final spray solutions contained 1.25+/−0.05% (v/v) crop oil concentrate.
For treatments comprised of technical compounds, weighed amounts can be placed individually in 25 mL glass vials and dissolved in a volume of 97:3 v/v acetone/DMSO to obtain 12× stock solutions. […] Application solutions can be prepared by adding an appropriate amount of each stock solution (e.g., 1 mL) and diluted to the appropriate final concentrations with the addition of 10 mL of an aqueous mixture of 1.5% (v/v) crop oil concentrate so that the final spray solutions contain 1.25% (v/v) crop oil concentrate. When technical materials are used, the concentrated stock solutions can be added to the spray solutions so that the final acetone and DMSO concentrations of the application solutions are […], respectively. […]

[4] = 20 DAA, 26.25 gai/ha Himeadow WP
[5] = 20 DAA, 52.5 gai/ha Himeadow WP
[6] = 21 DAA, 210 gai/ha Lapost Flowable

## CCS(=O)(=O)Oc1ccc2c(c1)C(C)(C)CO2 [Benfuresate, 2,3-dihydro-3,3-dimethyl-5-benzofuranyl ethanesulfonate]
[1]; 75 gai/ha
  Visual Weed Control (%) - 22 DAA ECHCG Obs: 0%
[1]; 150 gai/ha
  Visual Weed Control (%) - 22 DAA ECHCG Obs: 0%
[1]; 300 gai/ha
  Visual Weed Control (%) - 22 DAA ECHCG Obs: 0%
[2]; 75 gai/ha
  Visual Weed Control (%) - 21 DAA LEFCH Obs: 0%
[2]; 150 gai/ha
  Visual Weed Control (%) - 21 DAA LEFCH Obs: 10%
[2]; 300 gai/ha
  Visual Weed Control (%) - 21 DAA LEFCH Obs: 10%
  Visual Weed Control (%) - 22 DAA LEFCH Obs: 10%

## CCCOCCN(C(=O)CCl)c1c(CC)cccc1CC [Pretilachlor, 2-chloro-N-(2,6-diethylphenyl)-N-(2-propoxyethyl)acetamide]
[1]; 20 DAA, 37.5 gai/ha
  Visual Weed Control Obs: 10%
[1]; 20 DAA, 75 gai/ha
  Visual Weed Control Obs: 10%
[1]; 20 DAA, 150 gai/ha
  Visual Weed Control Obs: 0%

## COc1c(Cl)ccc(-c2nc(C(=O)O)c(Cl)c(N)c2F)c1F [Compound A Acid, 4-amino-3-chloro-6-(4-chloro-2-fluoro-3-methoxyphenyl)-5-fluoropyridine-2-carboxylic acid]
[1]; 5.3 gae/ha
  Visual Weed Control (%) - 22 DAA ECHCG Obs: 65%
[1]; 10.6 gae/ha
  Visual Weed Control (%) - 22 DAA ECHCG Obs: 55%
[1]; 20 DAA, 4.38 gae/ha
  Visual Weed Control Obs: 60% and 50%
[1]; 21 DAA, 17.5 gae/ha
  Visual Weed Control Obs: 88%
[1]; 21 DAA, 35 gae/ha
  Visual Weed Control Obs: 85%
[2]; 10.6 gae/ha
  Visual Weed Control (%) - 22 DAA LEFCH Obs: 10%
[2]; 20 DAA, 17.5 gae/ha
  Visual Weed Control Obs: 30% and 50%
[2]; 21 DAA, 17.5 gae/ha
  Visual Weed Control Obs: 20%
[2]; 21 DAA, 35 gae/ha
  Visual Weed Control Obs: 45%
[2]; 21.2 gae/ha
  Visual Weed Control (%) - 22 DAA LEFCH Obs: 10%
[3]; 4.38 gae/ha
  Visual Weed Control Obs: 0%
[3]; 8.75 gae/ha
  Visual Weed Control Obs: 20%
[3]; 17.5 gae/ha
  Visual Weed Control Obs: 40%

## CCN(CC)C(=O)n1cnc(S(=O)(=O)c2c(C)cc(C)cc2C)n1 [Cafenstrole, N,N-diethyl-3-[(2,4,6-trimethylphenyl)sulfonyl]-1H-1,2,4-triazole-1-carboxamide]
[1]; [4]
  Visual Weed Control Obs: 10%
[1]; [5]
  Visual Weed Control Obs: 15%
[1]; 20 DAA, 105 gai/ha Himeadow WP
  Visual Weed Control Obs: 15%
[1]; [6]
  Visual Weed Control Obs: 0%
[2]; [4]
  Visual Weed Control Obs: 0%
[2]; [5]
  Visual Weed Control Obs: 0%
[2]; 20 DAA, 105 gai/ha Himeadow WP
  Visual Weed Control Obs: 0%
[2]; [6]
  Visual Weed Control Obs: 23%
[3]; 26.25 gai/ha Himeadow WP
  Visual Weed Control Obs: 0%
[3]; 105 gai/ha Himeadow WP
  Visual Weed Control Obs: 30%
[3]; 26.25 gai/ha
  Visual Weed Control (%) - 21 DAA IPOHE Obs: 0%
[3]; 210 gai/ha, 2nd IPOHE sub-table
  Visual Weed Control (%) - 21 DAA IPOHE Obs: 10%

## COc1c(Cl)ccc(-c2nc(C(=O)OCc3ccccc3)c(Cl)c(N)c2F)c1F [Compound A Benzyl Ester, benzyl ester of 4-amino-3-chloro-5-fluoro-6-(4-chloro-2-fluoro-3-methoxy-phenyl)pyridine-2-carboxylic acid]
[1]; 5.3 gae/ha
  Visual Weed Control (%) - 22 DAA ECHCG Obs: 40%
[1]; 8 gae/ha
  Visual Weed Control (%) - 20 DAA ECHCG Obs: 63%
  Visual Weed Control (%) - 22 DAA ECHCG Obs: 25%
[1]; 10.6 gae/ha
  Visual Weed Control (%) - 22 DAA ECHCG Obs: 60%
[1]; 16 gae/ha
  Visual Weed Control (%) - 20 DAA ECHCG Obs: 78%
  Visual Weed Control (%) - 22 DAA ECHCG Obs: 50%
[1]; 20 DAA, 4.38 gae/ha
  Visual Weed Control Obs: 70%
[1]; 20 DAA, 8.75 gae/ha
  Visual Weed Control Obs: 70%
[1]; 20 DAA, 16 gae/ha
  Visual Weed Control Obs: 78%
[1]; 20 DAA, 32 gae/ha
  Visual Weed Control Obs: 83%
[1]; 32 gae/ha
  Visual Weed Control (%) - 20 DAA ECHCG Obs: 83%
  Visual Weed Control (%) - 22 DAA ECHCG Obs: 85%
[2]; 5.3 gae/ha
  Visual Weed Control (%) - 21 DAA LEFCH Obs: 0%
[2]; 8 gae/ha
  Visual Weed Control (%) - 21 DAA LEFCH Obs: 20%
  Visual Weed Control (%) - 22 DAA LEFCH Obs: 35%
[2]; 10.6 gae/ha
  Visual Weed Control (%) - 21 DAA LEFCH Obs: 20%
[2]; 16 gae/ha
  Visual Weed Control (%) - 19 DAA LEFCH Obs: 45%
  Visual Weed Control (%) - 22 DAA LEFCH Obs: 40%
[2]; 20 DAA, 17.5 gae/ha
  Visual Weed Control Obs: 50% and 25%
[2]; 21.2 gae/ha
  Visual Weed Control (%) - 21 DAA LEFCH Obs: 35%
[2]; 32 gae/ha
  Visual Weed Control (%) - 19 DAA LEFCH Obs: 50%
[3]; 4.38 gae/ha
  Visual Weed Control (%) - 21 DAA IPOHE Obs: 0%
  Visual Weed Control Obs: 10%
[3]; 8.75 gae/ha
  Visual Weed Control (%) - 21 DAA IPOHE Obs: 10%
  Visual Weed Control Obs: 15%
[3]; 17.5 gae/ha
  Visual Weed Control (%) - 21 DAA IPOHE Obs: 30%
  Visual Weed Control Obs: 25%
[3]; 17.5 gae/ha, 2nd IPOHE sub-table
  Visual Weed Control (%) - 21 DAA IPOHE Obs: 10%
